Patent US20020035131A1, “Regimen and kit for amelioration of premature ejaculation” (Pentech Pharmaceuticals, Inc., priority 1999, published 2002)
Several values for one entry are separate records, joined by “and”; a condition that tells them apart may be missing. Equal entries are not always repeated.

What was measured:
Type in all cases: in vivo, human
[1] = test system: normally potent male patients suffering from premature ejaculation; experiment: Example 1: incidence of adverse effects
Excerpt: All patients in the study group were heterosexual, had no other sexual disorders and were either married or in a stable relationship. The baseline pre-treatment ELT for the group, determined as the mean of measurements from a minimum of two acts of sexual intercourse was 2.2 (range 2-3) as reported by patients prior to commencement of the study using a stop watch operated by the patients.
Each patient was supplied with an ejaculation diary and instructed to record their frequency of coitus, quality of erection and orgasm, and to measure and record their ejaculatory latency time using a stop-watch. The patients were required to attempt coitus on at least two occasions each week.

[2] = test system: normally potent male patients suffering from premature ejaculation; experiment: Example 2 Study Group 2: single blind cross-over, daily paroxetine then continual maintenance vs placebo (ELT, coitus frequency)
[3] = test system: normally potent male patients suffering from premature ejaculation; experiment: Example 1 prospective study: ejaculatory latency time (ELT) and frequency of intercourse, dose conversion and continual maintenance regimens; conditions: for mean ELT after treatment: from a mean ELT of less than one minute
Description: The term “premature ejaculation” as used herein refers to ejaculation that occurs within 60 seconds of vaginal intromission. […] The patients were selected on the basis of a having baseline pretreatment ejaculation latency time (“ELT”) of less than about two minutes. An ELT of less than one minute was regarded as severe premature ejaculation dysfunction. In contrast, the average ELT of a normally potent person is about three to about four minutes. The baseline ELT of the patient was determined as the mean of measurements at a minimum of two acts of sexual intercourse prior to commencing treatment using a stopwatch operated by the patient. […] The term “acute” with respect to the dosing means that the patient ingested an oral dose of paroxetine daily after breakfast or lunch for a period of at least one week. The patients were supplied with an ejaculation diary and were asked to record their frequency of coitus, quality of erection and orgasm, and to record their ELT using a stopwatch. The patients were required to attempt coitus on at least two occasions each week at home. In some trials, the patient's partner was also instructed on the use of the stopwatch and asked to record their recollection of the timing of the patient's ejaculation. […] All patients in the study group were heterosexual, had no other sexual disorders and were either married or in a stable relationship. […] The mean age of the 94 patients was 39 years (range 18-61 years). […] Vital signs, such as heart rate, blood pressure and the like were also monitored by the Registered Nurse. […] Of the group, 55 men (59%) had lifelong premature ejaculation, with the remaining 39 men (41%) describing acquired premature ejaculation with previous acceptable ejaculatory control. Of the 55 men with lifelong premature ejaculation, 10 men (18%) had severe lifelong premature ejaculation and had never achieved intravaginal ejaculation. The patients in the study were enrolled into two groups, Group A and Group B. […] Each patient was supplied with an ejaculation diary and instructed to record their frequency of coitus, quality of erection and orgasm, and to measure and record their ejaculatory latency time using a stop-watch. The patients were required to attempt coitus on at least two occasions each week. Statistical analysis: A Student's t-test was used to compare the mean ELT values before and after treatment with paroxetine for each of Groups A and B.

[4] = Group A-Phase 1: 20 mg acute daily dosing
[5] = Group A-Phase 1: 20 mg acute daily dosing, 61 patients
[6] = Study Group 2-C, week 1: paroxetine 10 mg daily
[7] = Study Group 2-C, week 2: paroxetine 10 mg daily
[8] = Study Group 2-C, week 3: paroxetine 10 mg daily
[9] = Study Group 2-C, week 4: paroxetine 20 mg continual maintenance after three weeks 10 mg daily
[10] = Study Group 2-C, week 5: paroxetine 20 mg continual maintenance after three weeks 10 mg daily
[11] = Study Group 2-C, week 6: paroxetine 20 mg continual maintenance after three weeks 10 mg daily
[12] = Study Group 2-C, week 7: paroxetine 20 mg continual maintenance after three weeks 10 mg daily
[13] = Study Group 2-D, week 11: paroxetine 10 mg daily, first week after placebo phases and washout
[14] = Study Group 2-D, week 12: paroxetine 10 mg daily, second week after placebo phases and washout
[15] = Study Group 2-D, week 13: paroxetine 10 mg daily, third week after placebo phases and washout
[16] = Study Group 2-D, week 14: paroxetine 20 mg continual maintenance after three weeks 10 mg daily
[17] = Study Group 2-D, week 15: paroxetine 20 mg continual maintenance after three weeks 10 mg daily
[18] = Study Group 2-D, week 16: paroxetine 20 mg continual maintenance after three weeks 10 mg daily
[19] = Study Group 2-D, week 17: paroxetine 20 mg continual maintenance after three weeks 10 mg daily
[20] = Group A-Phase 2: 20 mg continual maintenance dose 3-4 hours prior to intercourse, further four weeks after Phase 1, 53 men
[21] = Group A-Phase 2: 20 mg continual maintenance, the 36/53 patients
[22] = Group B: 20 mg continual maintenance dose only, 3-4 hours prior to intercourse, four weeks, 33 men
[23] = Group B: solely 20 mg continual maintenance, the 14/33 responders
[24] = Group B: solely 20 mg continual maintenance, the 19/33 non-responders

Fc1ccc([C@@H]2CCNC[C@H]2COc2ccc3c(c2)OCO3)cc1 (relative stereo) [paroxetine, trans-(−)-3-(1,3-benzodioxol-5-yloxy)methyl-4-(4-fluorophenyl) piperidine]
Adverse effects: Total Patients (fraction) [1, 4]: 12/61 | Adverse effects: Total Patients (percent) [1, 4]: 20% | Adverse Effect: Drowsiness (patients) [1, 5]: 1 | Adverse Effect: Inhibited orgasm (patients) [1, 5]: 3 | Adverse effect: Anejaculation (patients) [1, 5]: 5 | Adverse effect: Anorexia (patients) [1, 5]: 1 | Adverse effect: Gastrointestinal upset (patients) [1, 5]: 2 | Adverse effect: Reduced Libido (patients) [1, 5]: 3 | patients with inhibition of orgasm despite achieving ejaculation (percent) ([1]; Group A-Phase 1: acute treatment with 20 mg paroxetine/day, 3/61): 5% | patients with anejaculation (percent) ([1]; Group A-Phase 1: acute treatment with 20 mg paroxetine/day, 5/61): 8% | Adverse effects: Total Patients (fraction) ([1]; Group A-Phase 2: 20 mg continual maintenance after conversion): None and 0/53 | Adverse effects: Total Patients (fraction) ([1]; Group B: 20 mg continual maintenance only): None and 0/33 | Erectile dysfunction ([1]; all patients of Example 1): not reported by any of the patients | patients with anejaculation achieving ejaculation with a reduced dose ([1]; anejaculation on 20 mg/day, reduced dose of 5 mg (n=3) and 10 mg (n=1)): 4/5 | Coitus Frequency/wk [2, 6]: 1.7 /wk | Ejaculatory Latency Time [2, 6]: 1.2 min | Coitus Frequency/wk [2, 7]: 1.9 /wk | Ejaculatory Latency Time [2, 7]: 1.8 min | Coitus Frequency/wk [2, 8]: 2.7 /wk | Ejaculatory Latency Time [2, 8]: 4.3 min | Coitus Frequency/wk [2, 9]: 2.3 /wk | Ejaculatory Latency Time [2, 9]: 4.5 min | Coitus Frequency/wk [2, 10]: 2.0 /wk | Ejaculatory Latency Time [2, 10]: 5.2 min | Coitus Frequency/wk [2, 11]: 2.9 /wk | Ejaculatory Latency Time [2, 11]: 4.7 min | Coitus Frequency/wk [2, 12]: 2.4 /wk | Ejaculatory Latency Time [2, 12]: 5.8 min | Coitus Frequency/wk [2, 13]: 2.0 /wk | Ejaculatory Latency Time [2, 13]: 2.2 min | Coitus Frequency/wk [2, 14]: 2.2 /wk | Ejaculatory Latency Time [2, 14]: 3.5 min | Coitus Frequency/wk [2, 15]: 3.1 /wk | Ejaculatory Latency Time [2, 15]: 3.3 min | Coitus Frequency/wk [2, 16]: 3.0 /wk | Ejaculatory Latency Time [2, 16]: 4.2 min | Coitus Frequency/wk [2, 17]: 2.6 /wk | Ejaculatory Latency Time [2, 17]: 3.9 min | Coitus Frequency/wk [2, 18]: 2.5 /wk | Ejaculatory Latency Time [2, 18]: 4.6 min | Coitus Frequency/wk [2, 19]: 2.7 /wk | Ejaculatory Latency Time [2, 19]: 6.1 min | patients achieving intra-vaginal ejaculation for the first time ([2]; Study Group 2, patients who had never previously achieved it, after two weeks of treatment): all of the five | patients who achieved and maintained improved ejaculatory control ([3]; Group A overall (36/61): four weeks daily 20 mg followed by conversion to continual maintenance): 59% | mean Frequency Intercourse Times/Week ([3]; Group A-Phase 1: 20 mg acute dose daily for four weeks, 61 men): 2.4 Times/Week | mean ELT ([3]; Group A-Phase 1: 20 mg acute dose daily, at four weeks, 61 men): 4.5 min | patients who regarded their ejaculatory control as significantly improved ([3]; Group A-Phase 1: 20 mg daily for four weeks, 53 of 61 patients): 87% | ELT of patients with improved ejaculatory control ([3]; Group A-Phase 1: 20 mg daily, after four weeks, the 53/61 responders): 5.1 min | mean ELT ([3]; Group A-Phase 1: 20 mg daily, after one week of treatment): 1.1 min | mean ELT ([3]; Group A-Phase 1: 20 mg daily, after two weeks): 1.6 min | mean ELT of patients without improved control ([3]; Group A-Phase 1: 20 mg daily, at four weeks, the 8/61 non-responders): 0.6 min | mean ELT ([3]; Group A-Phase 1: 20 mg daily, at three weeks): 3.5 min | frequency of sexual intercourse acts of patients without improved control ([3]; Group A-Phase 1: 20 mg daily, the 8/61 non-responders): 1.7 times/week | frequency of sexual intercourse acts of patients with improved ejaculatory control ([3]; Group A-Phase 1: 20 mg daily, the 53/61 responders): 2.5 times/week | mean ELT [3, 20]: 3.9 min | mean Frequency Intercourse Times/Week [3, 20]: 2.6 Times/Week | mean ELT of patients who failed to maintain improved control ([3]; Group A-Phase 2: 20 mg continual maintenance, at four weeks, the 16/53 men): 0.6 min | frequency of acts of sexual intercourse/week of patients who failed to maintain improved control ([3]; Group A-Phase 2: 20 mg continual maintenance, the 16/53 men): 2.8 acts of sexual intercourse/week | frequency of acts of sexual intercourse/week of patients who maintained improved control [3, 21]: 2.4 acts of sexual intercourse/week | mean ELT of patients who maintained improved ejaculatory control [3, 21]: 5.5 min | patients who failed to maintain improved ejaculatory control (recurrence of premature ejaculation) ([3]; Group A-Phase 2: after conversion from daily to 20 mg continual maintenance, 16/53): 31% and 32% | patients who maintained improved ejaculatory control ([3]; Group A-Phase 2: four weeks 20 mg continual maintenance after four weeks daily, 36/53): 69% and 68% | mean ELT [3, 22]: 1.5 min | mean Frequency Intercourse Times/Week [3, 22]: 2.2 Times/Week | patients who regarded their ejaculatory control as significantly improved (fraction of patients) ([3]; Group B: solely 20 mg continual maintenance): 14/33 | patients who achieved ejaculatory control ([3]; Group B: solely 20 mg continual maintenance, 14 of 33): 42% | frequency of acts of sexual intercourse/week of patients with improved control [3, 23]: 2.4 acts of sexual intercourse/week | mean ELT of patients with improved ejaculatory control [3, 23]: 2.7 min | frequency of acts of intercourse/week of patients with no change in ejaculatory control [3, 24]: two | mean ELT of patients with no change in ejaculatory control [3, 24]: 0.4 min | mean ELT after treatment ([3]; four weeks initial loading and four weeks continual maintenance): greater than 2.5 minutes | men achieving intra-vaginal ejaculation for the first time ([3]; men with severe lifelong premature ejaculation who had never achieved intra-vaginal ejaculation (including four in Group B)): 10/10 | time to improved ejaculatory control after initiating treatment ([3]; paroxetine oral therapy regimen): 1-2 weeks | mean ELT after treatment ([3]; solely continual maintenance dosage over about four weeks): at least 1.5 minutes
